According to patent publication US5061794A, “Cephalosporin derivatives, and antibacterial agents” (priority 1986, dated 1991):
Converted amounts (≈) assume the structure as drawn. Like-named read-outs stand apart in the source and are kept apart here.

Legend:
[1] = system: E. coli CSH(RE45); assay: microbe, parasite or virus in culture; type: cell-based; settings: Escherichia coli, 16 h, read-out: Minimum Inhibitory Concentration (MIC), *E. coli CSH(RE45), lactamase-producing strain; 10^6 CFU/ml
How it was run: (§1)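 Inoculum 10^6 CFU/ml; medium Mueller Hinton agar with graded antibiotic; 37° C./16 h; endpoint MIC (μg/ml).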

[2] = system: E. coli CSH2 (RK1); assay: microbe, parasite or virus in culture; type: cell-based; settings: Escherichia coli, 16 h, read-out: Minimum Inhibitory Concentration (MIC), *E. coli CSH2 (RK1), lactamase-producing strain; 10^6 CFU/ml
How it was run: as §1

[3] = system: E. cloacae 963; assay: in vitro antibacterial activity, agar plate dilution method (MIC); type: cell-based; settings: 10^6 CFU/ml
How it was run: as §1

[4] = system: E. cloacae Nek 39; assay: as above; type: cell-based; settings: Enterobacter cloacae, NEK39, 16 h, read-out: Minimum Inhibitory Concentration (MIC), *E. cloacae Nek 39, lactamase-producing strain; 10^6 CFU/ml
How it was run: as §1

[5] = system: E. coli GN5482; assay: as above; type: cell-based; settings: Escherichia coli, GN5482, 16 h, read-out: Minimum Inhibitory Concentration (MIC)
How it was run: as §1

[6] = system: E. coli NIHJ JC2; assay: as above; type: cell-based; settings: Escherichia coli, NIHJJC2, 16 h, read-out: Minimum Inhibitory Concentration (MIC), E. coli NIHJ JC2, 10^6 CFU/ml, 37° C.
How it was run: as §1

[7] = system: K. oxytoca GN10650; assay: as above; type: cell-based; settings: Klebsiella oxytoca, GN10650, 16 h, read-out: Minimum Inhibitory Concentration (MIC), *K. oxytoca GN10650, lactamase-producing strain; 10^6 CFU/ml
How it was run: as §1

[8] = system: K. pneumoniae No. 42; assay: as above; type: cell-based; settings: Klebsiella pneumoniae, NO.42, 16 h, read-out: Minimum Inhibitory Concentration (MIC), *K. pneumoniae No. 42, lactamase-producing strain; 10^6 CFU/ml
How it was run: as §1

[9] = system: K. pneumoniae PCI-602; assay: as above; type: cell-based; settings: Klebsiella pneumoniae, PCI602, 16 h, read-out: Minimum Inhibitory Concentration (MIC), K. pneumoniae PCI-602; 10^6 CFU/ml
How it was run: as §1

[10] = system: M. morganii GN5407; assay: as above; type: cell-based; settings: Morganella morganii, GN5407, 16 h, read-out: Minimum Inhibitory Concentration (MIC), *M. morganii GN5407, lactamase-producing strain; 10^6 CFU/ml
How it was run: as §1

[11] = system: P. vulgaris HX-19; assay: as above; type: cell-based; settings: Proteus vulgaris, HX19, 16 h, read-out: Minimum Inhibitory Concentration (MIC)
How it was run: as §1

[12] = system: P. vulgaris No. 33; assay: as above; type: cell-based; settings: Proteus vulgaris, 10^6 CFU/ml
How it was run: as §1

[13] = system: S. aureus 209P NIHJ-JC1; assay: as above; type: cell-based; settings: Staphylococcus aureus, 16 h, read-out: Minimum Inhibitory Concentration (MIC)
How it was run: as §1

[14] = system: S. marcescens IAM 1184; assay: as above; type: cell-based; settings: Serratia marcescens, IAM1184, 16 h, read-out: Minimum Inhibitory Concentration (MIC)
How it was run: as §1

[15] = system: S. marcescens No. 16-2; assay: as above; type: cell-based; settings: Serratia marcescens, NO.162, 16 h
How it was run: as §1

[16] = system: Ps. aeruginosa AK 109; assay: as above; type: cell-based, Pseudomonas aeruginosa; settings: Pseudomonas aeruginosa, AK109, 16 h
How it was run: as §1

[17] = system: Ps. aeruginosa AKR17; assay: as above; type: cell-based, Pseudomonas aeruginosa; settings: Pseudomonas aeruginosa, 10^6 CFU/ml
How it was run: as §1

[18] = system: Ps. aeruginosa IF03445; assay: as above; type: cell-based, Pseudomonas aeruginosa; settings: Pseudomonas aeruginosa, IF03445, 16 h, read-out: Minimum Inhibitory Concentration (MIC), Ps. aeruginosa IF03445; 10^6 CFU/ml
How it was run: as §1

[19] = system: Ps. cepacia 23; assay: as above; type: cell-based, Pseudomonas cepacia; settings: Burkholderia cepacia, 16 h; Ps. cepacia 23; 10^6 CFU/ml; read-out: Minimum Inhibitory Concentration (MIC)
How it was run: as §1

[20] = system: A. calcoaceticus No. 4; assay: as above; type: cell-based, Acinetobacter calcoaceticus; settings: Acinetobacter calcoaceticus, NO.4, 16 h, read-out: Minimum Inhibitory Concentration (MIC), A. calcoaceticus No. 4; 10^6 CFU/ml
How it was run: as §1

[21] = concentration in blood of mice after subcutaneous administration; type: in vivo, mice (ddY type, male); settings: mouse, sc, 20 mg/kg; for concentration at 0.125 h: 7.5 min; for concentration at 0.25 h: 15 min; for concentration at 0.5 h: 30 min; for concentration at 1 h: 60 min; for concentration at 2 h: 120 min
[22] = system: Enterobacter cloacae GN 5797; assay: β-lactamase inducibility; type: cell-based; settings: antibiotic at 50, 10 and 1 μg/ml; cephaloridine as substrate
Description: The assay method for induction of β-lactamase by β-latam antibiotics was as follows:
The test organism, Enterobacter cloacae GN 5797, was grown overnight in Mueller Hinton broth (Dlfco Laboratories, Detroit, Mich.) at 37° C. The culture was diluted 10-fold into 20 ml of the flesh medium and incubated with shaking at 37° C. After 2 hours of incubation, antibiotics were added to final concentrations of 50 μg/ml, 10 μg/ml and 1 μg/ml, and the incubation was continued. At 1 hour intervals after the addition of antibiotic, 3 ml of sample was taken, and immediately added with 0.1 ml of 50 mM sodium azide. The cells were harvested and washed with 50 mM phosphate buffer (ph 7.0). The cells were suspended in 5 ml of 50 mM phosphate buffer and disrupted with a sonicater in an ice-water bath. The broken cells were centrifuged at 16,500 G for 40 minutes at 4° C., and the resulting supernatant fluid was used as the crude enzyme. β-Lactamase activity was determined by a sopectrophotometric method (Antmicrob. Agents Chemother. 17, 355-358, 1980) with cephaloridine as substrate. The concentration of protein was determined by the method of Lowry (J. Biol. Chem. 193, 265-275, 1951). […] As a representative example, the compound of EXAMPLE 50 was administered to mice by means of subcutaneous administration, and the concentration in the blood was measured.

[23] = Enterobacter cloacae, 963, 16 h, read-out: Minimum Inhibitory Concentration (MIC), E. cloacae 963
[24] = S. marcescens IAM 1184, 10^6 CFU/ml
[25] = read-out: Minimum Inhibitory Concentration (MIC), *S. marcescens No. 16-2, lactamase-producing strain, 10^6 CFU/ml
[26] = read-out: Minimum Inhibitory Concentration (MIC)
[27] = NO.33, 16 h, read-out: Minimum Inhibitory Concentration (MIC), *P. vulgaris No. 33, lactamase-producing strain
[28] = Enterobacter cloacae, 16 h, E. cloacae 963, read-out: Minimum Inhibitory Concentration (MIC)
[29] = 16 h, Ps. aeruginosa AKR17, read-out: Minimum Inhibitory Concentration (MIC)

Compound: CC(C)(ON=C(C(=O)NC1C(=O)N2C(C(=O)O)=C(CSc3nc(C(=O)O)c(-c4ccc(O)c(O)c4)s3)CSC12)c1csc(N)n1)C(=O)O (stereo not drawn) [Ex. 50, trisodium 7β-[2-(2-aminothizaol-4-yl)-2-(1-carboxylate-1-methylethoxyimino)acetamido]-3-[4-carboxylate-5-(3,4-dihydroxyphenyl)thiazol-2-yl]-thiomethyl-3-cephem-4-carboxylate]
- MIC [1]: 0.0125 µg/mL
- MIC [2]: < 0.006 µg/mL
- MIC [3, 23]: 0.0125 µg/mL
- MIC [4]: 0.025 µg/mL
- MIC [5]: 0.39 µg/mL
- MIC [6]: 0.39 µg/mL
- MIC [7]: 0.025 µg/mL
- MIC [8]: 0.05 µg/mL
- MIC [9]: < 0.006 µg/mL
- MIC [10]: 0.025 µg/mL
- MIC ([11]; P. vulgaris HX-19, 10^6 CFU/ml): < 0.006 µg/mL
- MIC ([12]; 16 h, *P. vulgaris No. 33, lactamase-producing strain, read-out: Minimum Inhibitory Concentration (MIC)): < 0.006 µg/mL
- MIC ([13]; S. aureus 209P NIHJ-JC1, 10^6 CFU/ml, 37° C., 16 hours): 50 µg/mL
- MIC [14, 24]: 0.025 µg/mL
- MIC [15, 25]: 0.78 µg/mL
- MIC [16, 26]: 0.39 µg/mL
- MIC ([17]; AKR17, 16 h, read-out: Minimum Inhibitory Concentration (MIC), Ps. aeruginosa AKR17): 1.56 µg/mL
- MIC [18]: 0.39 µg/mL
- MIC [19]: < 0.006 µg/mL
- MIC [20]: 0.1 µg/mL
- concentration at 0.125 h [21]: 60500 ng/mL
- concentration at 0.25 h [21]: 67000 ng/mL
- concentration at 0.5 h [21]: 52300 ng/mL
- concentration at 1 h [21]: 18500 ng/mL
- concentration at 2 h [21]: 3100 ng/mL
- concentration at 4 h ([21]; 240 min): 220 ng/mL

Compound: CC(C)(O/N=C(\C(=O)N[C@@H]1C(=O)N2C(C(=O)O)=C(CSc3nc4cc(O)c(O)cc4o3)CS[C@H]12)c1csc(N)n1)C(=O)O [Example 76, disodium 7 β-[2-(2-aminothiazol-4-yl)-2-(1-carboxylate-1-methylethoxyimino)acetamido]-3-(5,6-dihydroxybenzoxazol-2-yl) thiomethyl-3-cephem-4-carboxylate]
- β-lactamase inducibility [22]: no substantial β-lactamase-inducing activity was observed

Compound: CC(C)(O/N=C(\C(=O)N[C@@H]1C(=O)N2C(C(=O)[O-])=C(C[n+]3ccccc3)CS[C@H]12)c1csc(N)n1)C(=O)O [ceftazidime, reference compound]
- MIC [3, 23]: 0.1 µg/mL (≈ 0.183 µM)
- MIC [4]: 1.56 µg/mL (≈ 2.85 µM)
- MIC [5]: 1.56 µg/mL (≈ 2.85 µM)
- MIC [6]: 0.1 µg/mL (≈ 0.183 µM)
- MIC [7]: 0.1 µg/mL (≈ 0.183 µM)
- MIC [8]: 0.39 µg/mL (≈ 0.714 µM)
- MIC [9]: 0.025 µg/mL (≈ 0.0457 µM)
- MIC [10]: 0.1 µg/mL (≈ 0.183 µM)
- MIC [11]: 0.025 µg/mL (≈ 0.0457 µM)
- MIC [12, 27]: 0.05 µg/mL (≈ 0.0915 µM)
- MIC [13]: 6.25 µg/mL (≈ 11.4 µM)
- MIC [14]: < 0.006 µg/mL
- MIC [15, 26]: 1.56 µg/mL (≈ 2.85 µM)
- MIC [16, 26]: 0.78 µg/mL (≈ 1.43 µM)
- MIC [18]: 1.56 µg/mL (≈ 2.85 µM)
- MIC [20]: 6.25 µg/mL (≈ 11.4 µM)
- concentration at 0.125 h [21]: 25400 ng/mL
- concentration at 0.25 h [21]: 24100 ng/mL
- concentration at 0.5 h [21]: 17300 ng/mL
- concentration at 1 h [21]: 3300 ng/mL
- concentration at 2 h [21]: 200 ng/mL

Compound: CCON=C(C(=O)NC1C(=O)N2C(C(=O)O)=C(CSc3nc(C(=O)O)c(-c4ccc(O)c(O)c4)s3)CSC12)c1csc(N)n1 (stereo not drawn) [compound 53, disodium 7β-[2-(2-aminothiazol-4-yl)-2-ethoxyiminoacetamido]-3-[4-carboxylate-5-(3,4-dihydroxyphenyl)thiazol-2-yl]thiomethyl-3-cephem-4-carboxylate]
- MIC [1]: 0.025 µg/mL
- MIC [2]: 0.0125 µg/mL
- MIC [3, 28]: 0.1 µg/mL
- MIC [4]: 0.39 µg/mL
- MIC [5]: 3.12 µg/mL
- MIC [6]: 0.78 µg/mL
- MIC [7]: 3.12 µg/mL
- MIC [8]: 0.1 µg/mL
- MIC [9]: < 0.006 µg/mL
- MIC [10]: 0.05 µg/mL
- MIC [11]: 0.0125 µg/mL
- MIC [12, 27]: 0.025 µg/mL
- MIC [13]: 12.5 µg/mL
- MIC [14, 24]: 0.05 µg/mL
- MIC [15, 25]: 6.25 µg/mL
- MIC [16, 26]: 3.12 µg/mL
- MIC [17, 29]: 50 µg/mL
- MIC [18]: 3.12 µg/mL
- MIC [19]: 0.025 µg/mL
- MIC [20]: 0.39 µg/mL

Compound: CCO/N=C(\C(=O)N[C@@H]1C(=O)N2C(C(=O)O)=C(CSc3ncc(-c4ccc(OC(C)=O)c(OC(C)=O)c4)o3)CS[C@H]12)c1csc(N)n1 [compound 67, disodium 3-[5-(3,4-diacetoxyphenyl)-oxazol-2-yl]thiomethyl-7β-[2-(2-aminothiazol-4)-2-ethoxyiminoacetamido]-3-cephem-4-carboxylate]
- MIC [1]: 0.1 µg/mL
- MIC [2]: 0.0125 µg/mL
- MIC [3, 28]: 0.1 µg/mL
- MIC [4]: 0.39 µg/mL
- MIC [5]: 3.12 µg/mL
- MIC [6]: 0.39 µg/mL
- MIC [7]: 1.56 µg/mL
- MIC [8]: 0.1 µg/mL
- MIC [9]: < 0.006 µg/mL
- MIC [10]: 0.05 µg/mL
- MIC [11]: 0.0125 µg/mL
- MIC [12, 27]: 0.025 µg/mL
- MIC [13]: 3.12 µg/mL
- MIC [14, 24]: 0.1 µg/mL
- MIC [15, 25]: 6.25 µg/mL
- MIC ([16]; read-out: Minimum Inhibitory Concentration (MIC), Ps. aeruginosa AK 109, 10^6 CFU/ml): 1.56 µg/mL
- MIC [17, 29]: 50 µg/mL
- MIC [18]: 1.56 µg/mL
- MIC [19]: 0.05 µg/mL
- MIC [20]: 0.39 µg/mL
